Seven compounds from ChEMBL document CHEMBL4257547, “Chemical modulation of transcription factors” (Medchemcomm, 2018) can be followed below.

A short description of data set [1]: Inhibition of [32P]-labeled CREB KID (unknown origin) binding to GST-fused mouse CBP KIX domain preincubated with GST-fused CBP for 15 mins followed by CREB addition and measured after 30 mins by SDS-gel electrophoresis/autoradiographic method. On the set-up: species or system Homo sapiens.
Data set [2] deals with Bromodomain-containing protein 4 (Homo sapiens, UniProt O60885). The data set can be described thus: Inhibition of human His-tagged BRD4 expressed in Escherichia coli BL21(DE3)-R3-pRARE2 cells preincubated for 30 mins followed by biotinylated acetyl-histone addition and measured after 30 mins by AlphaScreen method. A general note: Bead proximity is the source of the signal in Alpha formats.

The species entered for the next data set is Homo sapiens. Nature of the data set: Selectivity ratio of IC50 for inhibition of recombinant His6-tagged human Max homodimer/HEX-tagged double-stranded oligonucleotide complex formation to IC50 for inhibition of recombinant His6-tagged bHLH-LZ domain of human Myc/His6-tagged human Max/HEX-tagged double-stranded oligonucleotide complex formation.
Data set [3] can be described thus: Protein binding in mouse plasma after 4 hrs by rapid equilibrium dialysis method. The format is ADME, cell-free. The note with it: read-out: PPB.
The test system of a further data set is B16-F10. Nature of the data set: Cytotoxicity against mouse B16F10 cells assessed as decrease in cell viability after 24 hrs by MTT assay. The format is functional, cell-based. The note with it: B16-F10, 24 h.
The target in data set [4] is Mitogen-activated protein kinase kinase kinase 14 (Homo sapiens, UniProt Q99558). Nature of the data set: Inhibition of NIK (unknown origin) by HTRF method. On the technique in general: TR-FRET usually uses a lanthanide donor and a delayed reading to cut background.
Chain of Mitogen-activated protein kinase kinase kinase 14 (Q99558 whole entry): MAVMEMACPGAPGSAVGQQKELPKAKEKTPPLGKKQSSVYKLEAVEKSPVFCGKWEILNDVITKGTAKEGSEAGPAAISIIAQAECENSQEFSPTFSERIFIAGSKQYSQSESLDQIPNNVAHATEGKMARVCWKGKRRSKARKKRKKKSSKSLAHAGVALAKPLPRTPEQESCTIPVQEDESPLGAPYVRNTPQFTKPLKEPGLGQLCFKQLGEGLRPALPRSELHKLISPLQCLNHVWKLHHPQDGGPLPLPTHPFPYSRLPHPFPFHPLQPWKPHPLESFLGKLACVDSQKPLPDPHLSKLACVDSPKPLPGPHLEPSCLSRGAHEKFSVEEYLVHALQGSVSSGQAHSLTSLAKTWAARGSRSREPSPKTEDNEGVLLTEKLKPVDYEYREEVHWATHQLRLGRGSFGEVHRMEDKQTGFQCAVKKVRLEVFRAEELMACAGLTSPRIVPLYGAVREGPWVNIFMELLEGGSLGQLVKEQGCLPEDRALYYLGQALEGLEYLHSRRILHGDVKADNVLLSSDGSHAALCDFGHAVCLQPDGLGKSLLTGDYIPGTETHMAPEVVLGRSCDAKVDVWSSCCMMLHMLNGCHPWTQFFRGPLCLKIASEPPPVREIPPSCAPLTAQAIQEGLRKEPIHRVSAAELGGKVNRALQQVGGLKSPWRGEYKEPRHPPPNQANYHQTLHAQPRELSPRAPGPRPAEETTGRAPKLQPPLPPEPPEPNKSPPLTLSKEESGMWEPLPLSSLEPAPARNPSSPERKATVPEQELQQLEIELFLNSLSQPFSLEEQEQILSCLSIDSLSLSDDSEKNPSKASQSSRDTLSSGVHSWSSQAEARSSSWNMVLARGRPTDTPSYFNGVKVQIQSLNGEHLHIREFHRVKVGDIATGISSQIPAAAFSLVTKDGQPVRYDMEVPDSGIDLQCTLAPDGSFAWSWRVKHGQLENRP

For orientation: IC50 means the midpoint of a concentration-inhibition curve. By Ki is commonly meant a measure of affinity in units of concentration, obtained from inhibition or displacement. The low end stands for tighter binding, the high end for weaker binding.

Turning to `O=C(Nc1ccc(Cl)cc1)c1cc2ccccc2cc1OP(=O)(O)O`, the IC50 in data set [1] worked out at 90000 nM.
In the case of `Cc1nnn2c1-c1ccc(-c3cc[nH]n3)cc1C(c1ccc(Cl)cc1)=NC2`, in data set [2], the IC50 is 2 nM.
As for `COC(=O)c1ccc(Nc2ccc([N+](=O)[O-])c3nonc23)c(-c2ccc(C)cc2)c1`, in the data set listed under Homo sapiens, the Ratio IC50 turned out to be 2.
Take `COc1ccc(C2=Nn3c(nnc3-c3cc(-c4ccc(Cl)cc4)n[nH]3)SC2C)cc1` (configuration not stated): the fraction unbound at 4 h in data set [3] is less than 0.001.
In data set [2], `Cc1nnn2c1-c1ccc(-c3ccc(N)nc3)cc1C(c1ccc(Cl)cc1)=NC2` yielded an IC50 of 6 nM.
For the compound `CC(C)(O)/C=C/C(=O)[C@@](C)(O)[C@H]1C(O)C[C@@]2(C)[C@@H]3CC=C4[C@@H](C=C(O)C(=O)C4(C)C)[C@]3(C)CC[C@]12C` (some centres not stated), in the data set with B16-F10, the IC50 was 10000 nM.
The compound `C[C@](O)(C#Cc1ccc2ncc(-c3nc(N)ncc3Cl)n2c1)c1nccs1` gave a Ki in data set [4] of 0.3 nM.
